Where a name gives a salt, the structure may show the parent alone.
Experiments:
Assay in all cases: PI3K enzyme inhibitory activity in the cell free assay (ADP-Glo Kinase Assay)
Type in all cases: biochemical
[1] = target: T1, PI3Kβ (Homo sapiens, UniProt P42338); details: human recombinant PI3Kβ, ATP 100 μM; read-out: PI3K beta inhibition
T1 construct: purchased Millipore Ltd (Billerica, Mass.)

[2] = target: T2, PI3Kδ (Homo sapiens, UniProt O00329); details: human recombinant PI3Kδ, ATP 80 μM; read-out: PI3K delta inhibition
T2 construct: purchased Millipore Ltd (Billerica, Mass.)
T2 sequence (O00329 1-1044): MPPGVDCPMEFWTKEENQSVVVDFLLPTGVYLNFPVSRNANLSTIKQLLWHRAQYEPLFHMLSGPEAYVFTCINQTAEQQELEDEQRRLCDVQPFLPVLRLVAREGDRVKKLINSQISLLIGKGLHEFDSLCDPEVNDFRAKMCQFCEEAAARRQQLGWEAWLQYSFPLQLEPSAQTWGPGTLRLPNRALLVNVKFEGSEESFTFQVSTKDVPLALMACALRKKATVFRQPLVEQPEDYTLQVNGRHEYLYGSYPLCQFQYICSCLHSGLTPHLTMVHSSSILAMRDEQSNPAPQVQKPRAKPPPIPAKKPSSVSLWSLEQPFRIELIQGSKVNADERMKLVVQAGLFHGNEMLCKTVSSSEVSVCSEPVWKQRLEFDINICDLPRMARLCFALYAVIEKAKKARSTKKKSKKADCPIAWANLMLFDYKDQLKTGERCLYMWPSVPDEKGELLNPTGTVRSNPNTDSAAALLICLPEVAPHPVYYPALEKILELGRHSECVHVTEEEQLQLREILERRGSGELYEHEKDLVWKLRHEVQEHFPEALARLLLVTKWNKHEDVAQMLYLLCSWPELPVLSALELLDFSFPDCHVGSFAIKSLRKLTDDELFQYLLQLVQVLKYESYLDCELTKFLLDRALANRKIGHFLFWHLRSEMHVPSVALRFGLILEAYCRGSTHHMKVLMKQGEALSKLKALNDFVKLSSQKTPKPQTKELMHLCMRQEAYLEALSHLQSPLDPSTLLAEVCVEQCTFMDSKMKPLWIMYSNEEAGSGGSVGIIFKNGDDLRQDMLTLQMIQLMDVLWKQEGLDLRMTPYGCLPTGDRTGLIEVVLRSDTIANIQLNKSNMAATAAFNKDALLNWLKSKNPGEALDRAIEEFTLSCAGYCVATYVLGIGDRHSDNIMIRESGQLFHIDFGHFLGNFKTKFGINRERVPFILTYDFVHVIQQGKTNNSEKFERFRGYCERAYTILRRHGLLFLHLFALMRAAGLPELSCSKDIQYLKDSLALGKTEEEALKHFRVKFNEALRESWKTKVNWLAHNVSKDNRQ

[3] = target: T3, PI3Kγ (Homo sapiens, UniProt P48736); details: human recombinant PI3Kγ, ATP 30 μM; read-out: PI3K gamma inhibition
T3 construct: purchased Millipore Ltd (Billerica, Mass.)
T3 sequence (P48736 whole entry): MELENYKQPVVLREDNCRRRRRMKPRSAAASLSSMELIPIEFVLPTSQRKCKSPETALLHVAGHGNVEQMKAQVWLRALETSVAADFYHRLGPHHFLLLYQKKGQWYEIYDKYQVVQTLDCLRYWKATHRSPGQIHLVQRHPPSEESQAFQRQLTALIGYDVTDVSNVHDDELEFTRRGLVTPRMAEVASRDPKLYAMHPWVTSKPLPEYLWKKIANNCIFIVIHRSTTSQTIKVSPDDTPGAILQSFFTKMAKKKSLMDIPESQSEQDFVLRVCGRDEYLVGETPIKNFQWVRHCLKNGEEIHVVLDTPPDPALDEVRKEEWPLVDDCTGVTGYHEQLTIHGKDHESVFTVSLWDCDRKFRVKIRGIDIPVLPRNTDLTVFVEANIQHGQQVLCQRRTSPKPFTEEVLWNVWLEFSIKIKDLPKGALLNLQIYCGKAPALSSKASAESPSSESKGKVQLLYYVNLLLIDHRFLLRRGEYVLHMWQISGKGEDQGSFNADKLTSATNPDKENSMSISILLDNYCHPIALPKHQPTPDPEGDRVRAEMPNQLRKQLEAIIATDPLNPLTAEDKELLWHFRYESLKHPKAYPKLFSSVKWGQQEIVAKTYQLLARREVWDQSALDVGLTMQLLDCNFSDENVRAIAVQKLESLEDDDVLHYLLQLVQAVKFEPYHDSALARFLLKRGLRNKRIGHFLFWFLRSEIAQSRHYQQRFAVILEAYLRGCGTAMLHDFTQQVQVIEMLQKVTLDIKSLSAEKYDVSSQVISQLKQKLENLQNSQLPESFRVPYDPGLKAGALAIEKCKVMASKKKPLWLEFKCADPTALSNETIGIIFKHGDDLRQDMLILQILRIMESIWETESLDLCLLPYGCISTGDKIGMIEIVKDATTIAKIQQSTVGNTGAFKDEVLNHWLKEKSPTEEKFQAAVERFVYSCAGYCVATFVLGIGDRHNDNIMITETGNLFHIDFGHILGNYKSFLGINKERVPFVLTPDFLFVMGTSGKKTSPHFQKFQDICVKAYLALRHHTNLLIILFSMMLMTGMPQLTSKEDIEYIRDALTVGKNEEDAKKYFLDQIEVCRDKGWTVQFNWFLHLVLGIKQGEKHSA

T1 sequence (P42338 whole entry): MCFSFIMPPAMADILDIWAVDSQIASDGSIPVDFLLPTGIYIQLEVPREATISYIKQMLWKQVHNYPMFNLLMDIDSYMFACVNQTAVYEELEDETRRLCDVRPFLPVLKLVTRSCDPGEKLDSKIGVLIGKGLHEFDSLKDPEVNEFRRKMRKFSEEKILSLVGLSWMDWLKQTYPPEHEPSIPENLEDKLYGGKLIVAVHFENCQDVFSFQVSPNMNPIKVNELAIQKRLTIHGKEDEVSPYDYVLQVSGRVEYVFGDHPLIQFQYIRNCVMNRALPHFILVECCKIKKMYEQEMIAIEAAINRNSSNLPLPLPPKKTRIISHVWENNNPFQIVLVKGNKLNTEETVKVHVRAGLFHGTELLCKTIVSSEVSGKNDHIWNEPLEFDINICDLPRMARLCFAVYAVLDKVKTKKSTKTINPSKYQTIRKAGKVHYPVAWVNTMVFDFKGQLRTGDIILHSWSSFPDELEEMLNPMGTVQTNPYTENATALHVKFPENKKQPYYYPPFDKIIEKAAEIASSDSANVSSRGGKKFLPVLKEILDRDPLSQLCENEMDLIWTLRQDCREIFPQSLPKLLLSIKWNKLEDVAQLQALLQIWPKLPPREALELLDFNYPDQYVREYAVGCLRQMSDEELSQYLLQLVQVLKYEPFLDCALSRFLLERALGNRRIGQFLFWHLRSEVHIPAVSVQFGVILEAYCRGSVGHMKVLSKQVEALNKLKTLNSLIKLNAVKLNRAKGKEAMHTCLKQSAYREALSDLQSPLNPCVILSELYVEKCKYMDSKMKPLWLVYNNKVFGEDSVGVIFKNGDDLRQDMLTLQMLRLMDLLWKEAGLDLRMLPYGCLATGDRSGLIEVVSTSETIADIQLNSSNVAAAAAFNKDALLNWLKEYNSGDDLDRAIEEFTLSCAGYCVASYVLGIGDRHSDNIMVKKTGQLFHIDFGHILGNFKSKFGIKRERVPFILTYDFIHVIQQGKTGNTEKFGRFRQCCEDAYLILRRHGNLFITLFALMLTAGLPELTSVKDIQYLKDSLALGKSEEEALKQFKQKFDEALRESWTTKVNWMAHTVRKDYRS

Molecule	IC50 [1] [nM]	IC50 [2] [nM]	IC50 [3] [nM]
4-(1-acetyl-1,2,3,6-tetrahydropyridin-4-yl)-3-(1-(4-amino-3-(3-fluoro-5-hydroxyphenyl)-1H-pyrazolo[3,4-d]pyrimidin-1-yl)ethyl)-1H-isochromen-1-one single enantiomer [Example 166b]	10 to 1000	–	–
CC(c1oc(=O)c2ccccc2c1-c1ccccc1)n1nc(-c2ccncc2)c2c(N)ncnc21 (stereo not shown) [Example 54, 3-(1-(4-amino-3-(pyridin-4-yl)-1H-pyrazolo[3,4-d]pyrimidin-1-yl)ethyl)-4-phenyl-1H-isochromen-1-one]	–	10 to 1000	10 to 1000
Cc1cccc(-c2c(CNc3ncnc4[nH]cnc34)oc(=O)c3ccccc23)c1 [Example 31, 3-((9H-Purin-6-ylamino)methyl)-4-m-tolyl-1H-isochromen-1-one]	–	10 to 1000	10 to 1000
O=c1oc(CSc2ncnc3[nH]cnc23)c(-c2ccccc2)c2ccccc12 [Example 10, 3-((9H-Purin-6-ylthio)methyl)-4-phenyl-1H-isochromen-1-one]	–	> 1000	> 1000
CC(c1oc(=O)c2ccccc2c1-c1ccccc1)n1nc(-c2ccnnc2)c2c(N)ncnc21 (stereo not shown) [Example 53, 3-(1-(4-amino-3-(pyridazin-4-yl)-1H-pyrazolo[3,4-d]pyrimidin-1-yl)ethyl)-4-phenyl-1H-isochromen-1-one]	–	10 to 1000	> 1000
CC(Nc1ncnc2[nH]ncc12)c1oc(=O)c2ccccc2c1-c1ccccc1 (stereo not shown) [Example 43, 3-(1-(1H-pyrazolo[3,4-d]pyrimidin-4-ylamino)ethyl)-4-phenyl-1H-isochromen-1-one]	–	10 to 1000	> 1000
CC(c1oc(=O)c2ccccc2c1-c1ccccc1)n1nc(-c2ccnc(N)n2)c2c(N)ncnc21 (stereo not shown) [Example 89, 3-(1-(4-amino-3-(2-aminopyrimidin-4-yl)-1H-pyrazolo[3,4-d]pyrimidin-1-yl)ethyl)-4-phenyl-1H-isochromen-1-one hydrochloride]	–	> 1000	10 to 1000
CC(C)Oc1ccc(-c2nn(C(C)c3oc(=O)c4ccccc4c3-c3ccccc3)c3ncnc(N)c23)cc1F (stereo not shown) [Example 93, 3-(1-(4-amino-3-(3-fluoro-4-isopropoxyphenyl)-1H-pyrazolo[3,4-d]pyrimidin-1-yl)ethyl)-4-phenyl-1H-isochromen-1-one]	–	10 to 1000	10 to 1000
CC(c1oc(=O)c2ccccc2c1-c1ccccc1)n1cnc2c(N)ncnc21 (stereo not shown) [Example 5, 3-(1-(6-Amino-9H-1-purin-9-yl)ethyl)-4-phenyl-1H-isochromen-1-one]	–	10 to 1000	10 to 1000
CC(Sc1ncnc2[nH]cnc12)c1oc(=O)c2ccccc2c1-c1cccc(F)c1 (stereo not shown) [Example 14, 3-(1-(9H-Purin-6-ylthio)ethyl)-4-(3-fluorophenyl)-1H-isochromen-1-one]	–	10 to 1000	> 1000
Cc1n[nH]c2ccc(-c3nn(Cc4oc(=O)c5ccccc5c4-c4ccccc4)c4ncnc(N)c34)cc12 [Example 37, 3-((4-Amino-3-(3-methyl-1H-indazol-5-yl)-1H-pyrazolo[3,4-d]pyrimidin-1-yl)methyl)-4-phenyl-1H-isochromen-1-one]	–	10 to 1000	> 1000
CC(Nc1ncnc2[nH]cnc12)c1oc(=O)c2ccccc2c1-c1ccc(CN2CCNCC2)cc1 (stereo not shown) [Example 126, 3-(1-(9H-purin-6-ylamino)ethyl)-4-(4-(piperazin-1-ylmethyl)phenyl)-1H-isochromen-1-one dihydrochloride]	–	10 to 1000	10 to 1000
CC(c1oc(=O)c2ccccc2c1-c1cccc(CCCN(C)C)c1)n1nc(-c2cc(O)cc(F)c2)c2c(N)ncnc21 (single isomer, unassigned) [Example 137a, 3-(1-(4-amino-3-(3-fluoro-5-hydroxyphenyl)-1H-pyrazolo[3,4-d]pyrimidin-1-yl)ethyl)-4-(3-(3-(dimethylamino)propyl)phenyl)-1H-isochromen-1-one single enantiomers]	> 1000	10 to 1000	–
Cc1cccc(-c2c(C(C)Sc3ncnc4[nH]cnc34)oc(=O)c3ccccc23)c1 (stereo not shown) [Example 13, 3-(1-(9H-Purin-6-ylthio)ethyl)-4-m-tolyl-1H-isochromen-1-one]	–	10 to 1000	> 1000
Cc1cccc(-c2c(C(C)n3cnc4c(N)ncnc43)oc(=O)c3ccccc23)c1 (stereo not shown) [Example 6, 3-(1-(6-Amino-9H-purin-9-yl)ethyl)-4-m-tolyl-1H-isochromen-1-one]	–	10 to 1000	10 to 1000
O=c1oc(CNc2ncnc3[nH]cnc23)c(-c2cccc(F)c2)c2ccccc12 [Example 21, 3-((9H-Purin-6-ylamino)methyl)-4-(3-fluorophenyl)-1H-isochromen-1-one]	–	10 to 1000	10 to 1000
CC(c1oc(=O)c2ccccc2c1-c1ccccc1)n1nc(-c2cncc(CO)c2)c2c(N)ncnc21 (stereo not shown) [Example 85, 3-(1-(4-amino-3-(5-(hydroxymethyl)pyridin-3-yl)-1H-pyrazolo[3,4-d]pyrimidin-1-yl)ethyl)-4-phenyl-1H-isochromen-1-one]	–	10 to 1000	10 to 1000
CC(c1oc(=O)c2ccccc2c1-c1ccccc1)n1nc(-c2ccc(S(C)(=O)=O)nc2)c2c(N)ncnc21 (stereo not shown) [Example 97, 3-(1-(4-amino-3-(6-(methylsulfonyl)pyridin-3-yl)-1H-pyrazolo[3,4-d]pyrimidin-1-yl)ethyl)-4-phenyl-1H-isochromen-1-one]	–	< 10	> 1000
CC(Nc1ncnc2cccnc12)c1oc(=O)c2ccccc2c1-c1ccccc1 (stereo not shown) [Example 84, 4-phenyl-3-(1-(pyrido[3,2-d]pyrimidin-4-ylamino)ethyl)-1H-isochromen-1-one]	–	10 to 1000	10 to 1000
CC(Nc1ncnc2ccsc12)c1oc(=O)c2ccccc2c1-c1ccccc1 (stereo not shown) [Example 109, 4-phenyl-3-(1-(thieno[3,2-d]pyrimidin-4-ylamino)ethyl)-1H-isochromen-1-one]	–	10 to 1000	10 to 1000
CC(Nc1ncnc2[nH]cnc12)c1oc(=O)c2ccccc2c1-c1cccc(F)c1 (stereo not shown) [Example 32, 3-(1-(9H-purin-6-ylamino)ethyl)-4-(3-fluorophenyl)-1H-isochromen-1-one]	–	< 10	10 to 1000
CC(c1oc(=O)c2ccccc2c1-c1cccc(N(C)C)c1)n1cnc2c(N)ncnc21 (stereo not shown) [Example 8, 3-(1-(6-Amino-9H-purin-9-yl)ethyl)-4-(3-(dimethylamino)phenyl)-1H-isochromen-1-one]	–	10 to 1000	10 to 1000
CC(c1oc(=O)c2ccccc2c1-c1cccc(S(=O)(=O)N2CCOCC2)c1)n1ncc2c(N)ncnc21 (stereo not shown) [Example 16, 3-(1-(4-Amino-1H-pyrazolo[3,4-d]pyrimidin-1-yl)ethyl)-4-(3-(morpholinosulfonyl)phenyl)-1H-isochromen-1-one]	–	10 to 1000	10 to 1000
CC(c1oc(=O)c2cc(Cl)ccc2c1-c1ccccc1)n1nc(-c2cc(O)cc(F)c2)c2c(N)ncnc21 (stereo not shown) [Example 163, 3-(1-(4-amino-3-(3-fluoro-5-hydroxyphenyl)-1H-pyrazolo[3,4-d]pyrimidin-1-yl)ethyl)-7-chloro-4-phenyl-1H-isochromen-1-one]	–	10 to 1000	> 1000
CC(c1oc(=O)c2ccccc2c1-c1ccccc1)n1nc(-c2ccc(CO)nc2)c2c(N)ncnc21 (stereo not shown) [Example 86, 3-(1-(4-amino-3-(6-(hydroxymethyl)pyridin-3-yl)-1H-pyrazolo[3,4-d]pyrimidin-1-yl)ethyl)-4-phenyl-1H-isochromen-1-one]	–	< 10	10 to 1000
CC(c1oc(=O)c2ccccc2c1C1=CCN(C)CC1)n1nc(-c2cc(O)cc(F)c2)c2c(N)ncnc21 (single isomer, unassigned) [Example 46b, 3-1-(4-amino-3-(3-fluoro-5-hydroxyphenyl)-1H-pyrazolo[3,4-d]pyrimidin-1-yl)ethyl)-4-(1-methyl-1,2,3,6-tetrahydropyridin-4-yl)-1H-isochromen-1-one hydrochloride]	–	10 to 1000	> 1000
CC(c1oc(=O)c2ccccc2c1-c1cccc(F)c1)n1cnc2c(N)ncnc21 (stereo not shown) [Example 7, 3-(1-(6-Amino-9H-purin-9-yl)ethyl)-4-(3-fluorophenyl)-1H-isochromen-1-one]	–	10 to 1000	10 to 1000
Cc1cccc(-c2c(C(C)Nc3ncnc4[nH]cnc34)oc(=O)c3ccccc23)c1 (stereo not shown) [Example 33, 3-(1-(9H-Purin-6-ylamino)ethyl)-4-m-tolyl-1H-isochromen-1-one]	–	< 10	10 to 1000

Source: US9321776B2, “Isochromene derivatives as phoshoinositide 3-kinases inhibitors” (CHIESI FARMACEUTICI S.p.A., priority 2013, dated 2016)
